Results from paper PMC3914206.

Legend:
panel of 442 kinases [1] = biological target: T1, panel of 442 kinases (Homo sapiens, UniProt P42681); type: binding; details: kinase TXK; compound concentration 10 µM
T1 construct: purchased KINOMEscan
T1 sequence (P42681 1-527): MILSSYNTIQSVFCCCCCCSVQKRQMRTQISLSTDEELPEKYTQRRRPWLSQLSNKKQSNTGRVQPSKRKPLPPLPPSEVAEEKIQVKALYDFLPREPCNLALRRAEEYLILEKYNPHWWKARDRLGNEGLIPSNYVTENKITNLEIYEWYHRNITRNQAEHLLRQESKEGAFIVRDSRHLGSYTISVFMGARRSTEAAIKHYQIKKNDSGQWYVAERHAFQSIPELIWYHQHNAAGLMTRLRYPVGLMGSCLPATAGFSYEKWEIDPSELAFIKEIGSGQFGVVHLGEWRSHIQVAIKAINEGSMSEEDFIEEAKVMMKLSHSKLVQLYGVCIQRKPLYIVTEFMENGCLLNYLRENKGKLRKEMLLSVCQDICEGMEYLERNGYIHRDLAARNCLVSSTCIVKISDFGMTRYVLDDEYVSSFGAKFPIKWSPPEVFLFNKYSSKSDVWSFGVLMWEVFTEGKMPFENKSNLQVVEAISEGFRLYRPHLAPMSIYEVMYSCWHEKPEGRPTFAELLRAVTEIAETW
Description: (§1) We assessed the selectivity of members of this scaffold using the KINOMEscan methodology across a near comprehensive panel of 442 kinases [[18,27]].

panel of 442 kinases [2] = biological target: T2, panel of 442 kinases (Homo sapiens, UniProt Q9BZL6); type: binding; details: Compound Concentration 10 µM
T2 construct: purchased KINOMEscan
T2 sequence (Q9BZL6 1-878): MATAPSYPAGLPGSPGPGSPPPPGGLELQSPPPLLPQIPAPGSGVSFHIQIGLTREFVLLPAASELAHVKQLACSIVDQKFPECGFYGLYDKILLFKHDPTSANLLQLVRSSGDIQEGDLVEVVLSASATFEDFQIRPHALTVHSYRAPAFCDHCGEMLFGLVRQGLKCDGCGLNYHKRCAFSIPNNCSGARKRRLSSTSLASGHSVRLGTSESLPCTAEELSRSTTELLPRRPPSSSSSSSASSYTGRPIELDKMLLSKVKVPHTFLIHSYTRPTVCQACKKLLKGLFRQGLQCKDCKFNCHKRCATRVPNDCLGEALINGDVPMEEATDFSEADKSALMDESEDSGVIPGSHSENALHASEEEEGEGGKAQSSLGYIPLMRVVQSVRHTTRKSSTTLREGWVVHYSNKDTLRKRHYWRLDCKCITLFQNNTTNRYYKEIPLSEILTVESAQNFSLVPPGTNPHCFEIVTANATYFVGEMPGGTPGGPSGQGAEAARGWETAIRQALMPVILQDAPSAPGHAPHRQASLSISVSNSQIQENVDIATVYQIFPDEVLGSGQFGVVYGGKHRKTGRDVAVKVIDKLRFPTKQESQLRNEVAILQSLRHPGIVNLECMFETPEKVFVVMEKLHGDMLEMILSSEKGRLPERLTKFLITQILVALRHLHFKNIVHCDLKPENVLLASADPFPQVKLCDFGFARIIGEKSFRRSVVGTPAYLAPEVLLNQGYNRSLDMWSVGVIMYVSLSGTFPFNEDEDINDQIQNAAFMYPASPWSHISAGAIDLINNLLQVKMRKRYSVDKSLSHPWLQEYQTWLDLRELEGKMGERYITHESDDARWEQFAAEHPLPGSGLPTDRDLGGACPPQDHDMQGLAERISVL
Description: as §1

Compound	% Ctrl, TXK (panel of 442 kinases [1])	KINOMEscan: PRKD2 (panel of 442 kinases [2])
COc1cc(C(=O)N2CCC(N3CCN(C)CC3)CC2)ccc1Nc1ncc2c(n1)N(C1CCCC1)c1ccccc1C(=O)N2C [Compound 25, 11-cyclopentyl-2-((2-methoxy-4-(4-(4-methylpiperazin-1-yl)piperidine-1-carbonyl)phenyl)amino)-5-methyl-5H-benzo[e]pyrimido[5,4-b][1,4]diazepin-6(11H)-one]	95 % Ctrl	87
CCOc1cc(C(=O)N2CCC(N3CCN(C)CC3)CC2)ccc1Nc1ncc2c(n1)N(C1CCCC1)c1ccccc1C(=O)N2C [Compound 26]	100 % Ctrl	100
COc1cc(C(=O)N2CCC(N3CCN(C)CC3)CC2)ccc1Nc1ncc2c(n1)N1CCc3cccc(c31)C(=O)N2C [Compound 24]	93 % Ctrl	30
COc1cc(C(=O)N2CCC(N3CCN(C)CC3)CC2)ccc1Nc1ncc2c(n1)N(C)c1ccccc1C(=O)N2C [15 (LRRK2-IN-1)]	91 % Ctrl	59
